The source made the active and inactive calls. How the calls were made is not given here.
Test system: rodent carcinogenicity bioassays, tumor incidence
Experiment: CCRIS carcinogenicity studies
Procedure, shortened: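 Archive of carcinogenicity, mutagenicity, tumor promotion and tumor inhibition results drawn from journals, NCI reports and other sources, expert-reviewed; covers 1985-2011 and is no longer updated.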

With `OC(Cn1cncn1)(c1ccc(F)cc1)c1ccccc1F` (stereo unspecified) as the molecule, how does the carcinogen call (Species: Mouse, Strain/Sex: C57BL/10JfCD-1/Alpk (C57BL/10J)/Female (50/Group), Route: Oral, Dose: 0, 10, 50, 200 ppm (0; 1.5; 7.5; 30 mg/kg/day) of 93% flutriafol in diet for 2 yr, study duration 2 yr, Dose: 0, 10, 50, 200 ppm (0; 1.5; 7.5; 30 mg/kg/day) of 93% flutriafol in diet for 2 yr, study duration 2 yr) read?
The carcinogen call was “inactive; negative”.

What about the carcinogen call (Species: Mouse, Strain/Sex: C57BL/10JfCD-1/Alpk (C57BL/10J)/Male (50/Group), Route: Oral, Dose: 0, 10, 50, 200 ppm (0; 1.5; 7.5; 30 mg/kg/day) of 93% flutriafol in diet for 2 yr, study duration 2 yr, Dose: 0, 10, 50, 200 ppm (0; 1.5; 7.5; 30 mg/kg/day) of 93% flutriafol in diet for 2 yr, study duration 2 yr) of the same molecule?
Its carcinogen call is “inactive; negative”.

What about the carcinogen call (Species: Rat, Strain/Sex: Alpk:AP/Female (52/Group), Route: Oral, Dose: 0, 20, 200, 2000 ppm (0; 1; 10; 100 mg/kg/day) of 93% flutriafol in diet for 104 wk, study duration 104 wk, Dose: 0, 20, 200, 2000 ppm (0; 1; 10; 100 mg/kg/day) of 93% flutriafol in diet for 104 wk, study duration 104 wk) of the same molecule?
Its carcinogen call is “inactive; negative”.

What about the carcinogen call (Species: Rat, Strain/Sex: Alpk:AP/Male (52/Group), Route: Oral, Dose: 0, 20, 200, 2000 ppm (0; 1; 10; 100 mg/kg/day) of 93% flutriafol in diet for 104 wk, study duration 104 wk, Dose: 0, 20, 200, 2000 ppm (0; 1; 10; 100 mg/kg/day) of 93% flutriafol in diet for 104 wk, study duration 104 wk) of the same molecule?
The carcinogen call was “inactive; negative”.

`C[C@H]([C@H](O)CCC(C)(C)O)[C@H]1CC[C@@]2(O)C3=CC(=O)[C@@H]4C[C@@H](O)[C@@H](O)C[C@]4(C)[C@H]3CC[C@]12C` was tested. Which carcinogen call (Species: MOUSE, Strain/Sex: SWISS/FEMALE, Route: ORAL, Dose: 0, 3 PPM/25 G BW IN DIET FOR 22 MO (STUDY DURATION: 22 MO), Tumor Site: Type of Lesion: MAMMARY GLAND: TUMOR, LUNG: TUMOR) did it give?
The carcinogen call was “active; positive”.

And the carcinogen call (Species: MOUSE, Strain/Sex: SWISS/MALE, Route: ORAL, Dose: 0, 3 PPM/25 G BW IN DIET FOR 22 MO (STUDY DURATION: 22 MO), Tumor Site: Type of Lesion: LUNG: TUMOR)?
The carcinogen call was “active; positive”.

How did the carcinogen call (Species: RAT, Strain/Sex: SPRAGUE-DAWLEY/MALE, Route: ORAL, Dose: 0, 1.5 UG/ML IN DRINKING WATER FOR AN AVERAGE DAILY DOSE OF 12.7 UG/KG DURING WK10-20 THEN 4.8 UG/KG DURING WK 21-104 (S, Tumor Site: Type of Lesion: LIVER: HEPATOCELLULAR ADENOMA OR CARCINOMA) turn out when `CC1(C)O[C@@H]2C[C@H]3[C@@H]4CCC5=CC(=O)C=C[C@]5(C)[C@@]4(F)[C@@H](O)C[C@]3(C)[C@]2(C(=O)CO)O1` was run?
Its carcinogen call is “active; positive”.

Which carcinogen call (Species: MONKEY, Strain/Sex: CYNOMOLGUS/FEMALE, Route: GAVAGE, Dose: 0, 10, 20 MG/KG BW FOR 84 MONTHS (STUDY DURATION: 92 MONTHS), Dose: 0, 10, 20 MG/KG BW FOR 84 MONTHS (STUDY DURATION: 92 MONTHS)) does the source give for `Cc1cnc2ccc3c(nc(N)n3C)c2n1` here?
Its carcinogen call is “inactive; negative”.

What about the carcinogen call (Species: MONKEY, Strain/Sex: CYNOMOLGUS/MALE, Route: GAVAGE, Dose: 0, 10, 20 MG/KG BW FOR 84 MONTHS (STUDY DURATION: 92 MONTHS), Dose: 0, 10, 20 MG/KG BW FOR 84 MONTHS (STUDY DURATION: 92 MONTHS)) of the same molecule?
The carcinogen call was “inactive; negative”.

What about the carcinogen call (Species: MOUSE, Strain/Sex: B6C3F1/MALE, Route: INTRAPERITONEAL, Dose: 0, 0.625 UMOL IN 35 µL DMSO ON D 1, 8, AND 15 AFTER BIRTH (STUDY DURATION: 8 MO)) of the same molecule?
Its carcinogen call is “inactive; negative”.

And the carcinogen call (Species: MOUSE, Strain/Sex: B6C3F1/MALE, Route: INTRAPERITONEAL, Dose: 0, 0.625 UMOL IN 35 µL DMSO ON D 1, 8, AND 15 AFTER BIRTH (STUDY DURATION: 12 MO), Tumor Site: Type of Lesion: LIVER: HEPATOCELLULAR ADENOMA)?
The carcinogen call was “active; positive”.

And the carcinogen call (Species: MOUSE, Strain/Sex: B6C3F1/MALE, Route: INTRAPERITONEAL, Dose: 0, 1.25 UMOL IN 35 µL DMSO ON D 1, 8, AND 15 AFTER BIRTH (STUDY DURATION: 8 MO))?
Its carcinogen call is “inactive; negative”.

And the carcinogen call (Species: MOUSE, Strain/Sex: B6C3F1/MALE, Route: INTRAPERITONEAL, Dose: 0, 1.25 UMOL IN 35 µL DMSO ON D 1, 8, AND 15 AFTER BIRTH (STUDY DURATION: 12 MO), Tumor Site: Type of Lesion: LIVER: HEPATOCELLULAR ADENOMA, HEPATOCELLULAR CARCINOMA)?
The carcinogen call was “active; positive”.

What about the carcinogen call (Species: MOUSE, Strain/Sex: C57BL/6J/MALE (20/GROUP), Route: DIET, Dose: 0, 30, 300 PPM FOR 78 WK (STUDY DURATION: 78 WK), Dose: 0, 30, 300 PPM FOR 78 WK (STUDY DURATION: 78 WK)) of the same molecule?
Its carcinogen call is “inactive; negative”.

And the carcinogen call (Species: MOUSE, Strain/Sex: CDF1/FEMALE, Route: ORAL, Dose: 0, 0.06% IN DIET FOR 84 WK (STUDY DURATION: 84 WK), Tumor Site: Type of Lesion: LIVER: TUMOR, LUNG: ADENOMA OR ADENOCARCINOMA)?
Its carcinogen call is “active; positive”.

And the carcinogen call (Species: MOUSE, Strain/Sex: CDF1/MALE, Route: ORAL, Dose: 0, 0.06% IN DIET FOR 84 WK (STUDY DURATION: 84 WK), Tumor Site: Type of Lesion: LIVER: TUMOR, LYMPHATIC SYSTEM: LYMPHOMA OR LEUKEMIA)?
The carcinogen call was “active; positive”.

What about the carcinogen call (Species: RAT, Strain/Sex: F344/FEMALE, Route: ORAL, Dose: 0, 0.04% IN DIET FOR DURATION OF STUDY (STUDY DURATION: 429 D), Tumor Site: Type of Lesion: LIVER: TUMOR, ZYMBAL GLAND: TUMOR, CLITORAL GLAND: TUMOR, Tumor Site: Type of Lesion: LIVER: TUMOR, ZYMBAL GLAND: TUMOR, CLITORAL GLAND: TUMOR) of the same molecule?
The carcinogen call was “active; positive”.

And the carcinogen call (Species: RAT, Strain/Sex: F344/MALE, Route: ORAL, Dose: 0, 0.04% IN DIET FOR DURATION OF STUDY (STUDY DURATION: 429 D), Tumor Site: Type of Lesion: LIVER: TUMOR, ZYMBAL GLAND: TUMOR, SKIN: TUMOR, Tumor Site: Type of Lesion: LIVER: TUMOR, ZYMBAL GLAND: TUMOR, SKIN: TUMOR)?
Its carcinogen call is “active; positive”.

And the carcinogen call (Species: RAT, Strain/Sex: F344/MALE, Route: ORAL, Dose: 0, 100, 200, 400 PPM IN DIET FOR 56 WK (STUDY DURATION: 56 WK), Dose: 0, 100, 200, 400 PPM IN DIET FOR 56 WK (STUDY DURATION: 56 WK), Tumor Site: Type of Lesion: LIVER: HEPATOCELLULAR ADENOMA, HEPATOCELLULAR CARCINOMA, ZYMBAL GLAND: SQUAMOUS CELL CARCINOMA, SKIN: TUMOR, Tumor Site: Type of Lesion: LIVER: HEPATOCELLULAR ADENOMA, HEPATOCELLULAR CARCINOMA, ZYMBAL GLAND: SQUAMOUS CELL CARCINOMA, SKIN: TUMOR)?
Its carcinogen call is “active; positive”.

And the carcinogen call (Species: RAT, Strain/Sex: LEA/MALE, Route: ORAL, Dose: 0, 40 PPM IN DIET FOR 40 WK (STUDY DURATION: 40 WK))?
Its carcinogen call is “inactive; negative”.

And the carcinogen call (Species: RAT, Strain/Sex: LEC/MALE, Route: ORAL, Dose: 0, 40 PPM IN DIET FOR 40 WK (STUDY DURATION: 40 WK), Tumor Site: Type of Lesion: LIVER: TUMOR)?
Its carcinogen call is “active; positive”.

What about the carcinogen call (Species: RAT, Strain/Sex: SPRAGUE-DAWLEY/FEMALE, Route: GAVAGE, Dose: 75 MG/KG/D FOR 10 D, THEN PLACED ON A HIGH-FAT DIET (STUDY DURATION: 46 WK), Tumor Site: Type of Lesion: MAMMARY GLAND: CARCINOMA, ADENOMA) of the same molecule?
The carcinogen call was “active; positive”.

Which carcinogen call (Species: RAT, Strain/Sex: SPRAGUE-DAWLEY/FEMALE, Route: INTRAVENOUS, Dose: 0, 10 MG/KG IN SALINE ONCE (STUDY DURATION: 244 D) (STUDY DURATION: 244 D), Tumor Site: Type of Lesion: MAMMARY GLAND: TUMOR) does the source give for `COc1cccc2c1C(=O)c1c(O)c3c(c(O)c1C2=O)C[C@@](O)(C(C)=O)C[C@@H]3O[C@H]1C[C@H](N)[C@H](O)[C@H](C)O1` here?
The carcinogen call was “active; positive”.

What about the carcinogen call (Species: RAT, Strain/Sex: SPRAGUE-DAWLEY/FEMALE, Route: INTRAVENOUS, Dose: 0, 10 MG/KG IN SALINE SOLUTION ONCE (STUDY DURATION: 1 YR), Tumor Site: Type of Lesion: MAMMARY GLAND: ADENOCARCINOMA) of the same molecule?
The carcinogen call was “active; positive”.

And the carcinogen call (Species: RAT, Strain/Sex: SPRAGUE-DAWLEY/FEMALE, Route: SUBCUTANEOUS, Dose: 0, 2, 4, 8 UG IN 100 µL SALINE INTO THORACIC AND ABDOMINAL MAMMARY GLANDS ONCE (STUDY DURATION: 6.5 MO), Dose: 0, 2, 4, 8 UG IN 100 µL SALINE INTO THORACIC AND ABDOMINAL MAMMARY GLANDS ONCE (STUDY DURATION: 6.5 MO), Tumor Site: Type of Lesion: MAMMARY GLAND: TUMOR)?
Its carcinogen call is “active; positive”.

What about the carcinogen call (Species: RAT, Strain/Sex: SPRAGUE-DAWLEY/MALE, Route: INTRAVENOUS, Dose: 0, 10 MG/KG IN SALINE SOLUTION ONCE (STUDY DURATION: 1 YR), Tumor Site: Type of Lesion: MAMMARY GLAND: ADENOCARCINOMA) of the same molecule?
Its carcinogen call is “active; positive”.
